Patent US20110263696A1, “PROANTHOCYANIDINS FROM CINNAMON AND ITS WATER SOLUBLE EXTRACT INHIBIT TAU AGGREGATION” (priority 2007, published 2011)

Legend:
Format in all cases: biochemical
[1] = target: T1, Full-length tau (Homo sapiens, UniProt P10636); assay: Ultracentrifugation and SDS-PAGE of pellet vs supernatant, full-length tau; conditions: 200 uM trimer; 45 min; 100,000 g x 60 min (FIG. 3b)
T1 construct: full-length tau and an engineered truncation fragment of tau (tau187) were generated by over-expression of the recombinant human protein in bacteria; made in house; host or cells: bacteria
T1 sequence (P10636 1-441 isoform P10636-8): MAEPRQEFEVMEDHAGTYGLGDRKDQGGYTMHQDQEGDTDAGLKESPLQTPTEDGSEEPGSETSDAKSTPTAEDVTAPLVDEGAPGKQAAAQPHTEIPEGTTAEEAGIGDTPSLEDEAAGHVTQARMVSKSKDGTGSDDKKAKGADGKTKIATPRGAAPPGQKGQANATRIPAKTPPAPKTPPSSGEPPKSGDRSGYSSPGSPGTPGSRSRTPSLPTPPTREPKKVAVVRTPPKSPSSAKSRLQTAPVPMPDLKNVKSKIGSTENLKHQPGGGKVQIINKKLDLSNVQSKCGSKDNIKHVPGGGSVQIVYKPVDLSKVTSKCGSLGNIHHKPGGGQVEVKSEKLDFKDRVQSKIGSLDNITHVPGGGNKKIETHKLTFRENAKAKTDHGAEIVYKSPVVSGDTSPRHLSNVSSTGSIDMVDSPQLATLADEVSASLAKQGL
Description: (§1) FIG. 3. Proanthocyanidins inhibit tau aggregation. A) Turbidity assay. Aggregation of FL-tau (50 uM) was initiated with heparin (0.1 mg/ml) in 20 mM NaPO4, pH 7.0. Curve 1: no proanthocyanidin; Curve 2: 200 uM purified A-type trimer. B) After 45 min, reactions were centrifuged at 100,000 g×60 min. The amount of tau in the pellets (P) vs. supernatants (S) were examined by SDS-PAGE. Markers (top to bottom) are 97, 66, 45 kDa. C, D) EM after aggregation for 45 min. Scale bars=500 nm; C) no proanthocyanidin, D) 200 uM purified A-type trimer.
FIG. 4. Cinnamon extract inhibits tau aggregation. […] Samples were then treated with 1% sarkosyl for 1 hr, centrifuged (105,000 g×1 hr), and the pellets (P) versus supernatants (S) then analyzed by SDS-PAGE. […]
(§2) As shown by the data disclosed in the various figures, proanthocyanidins bind to tau and inhibit tau aggregation. […] In these experiments, heparin-induced aggregation of tau into PHF-like fibers is routinely monitored by four methods: 1) enhanced Thioflavin S fluorescence emission; 2) increased turbidity measured by OD350; 3) ultracentrifugation of sarkosyl-treated samples, and 4) electron microscopy. […] To ensure that proanthocyanidin molecules were not simply binding to and precipitating tau in a non-specific manner, the amount of tau that fractionated with the pellet vs. supernatant after high-speed ultracentrifugation was analyzed.

[2] = target: T2, tau fragment (tau 187) (Homo sapiens, UniProt P10636); assay: Thioflavin T fluorescence assay of tau aggregation
T2 construct: his; made in house; host or cells: bacteria
T2 sequence (P10636 572-758 limits assumed): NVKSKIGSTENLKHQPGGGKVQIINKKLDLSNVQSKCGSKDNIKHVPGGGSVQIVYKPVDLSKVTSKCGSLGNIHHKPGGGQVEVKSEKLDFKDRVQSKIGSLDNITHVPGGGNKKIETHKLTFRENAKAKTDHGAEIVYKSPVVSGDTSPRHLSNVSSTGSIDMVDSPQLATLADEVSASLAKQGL
Description: In one illustrative embodiment of the invention, the effects of cinnamon proanthocyanidin or its extract can be determined by fluorescence measurements in the presence of a thioflavin derivative. If aggregation proceeds through formation of an ordered structure, enhancement of thioflavin occurs. This method can be used to quantify the effects of the proanthocyanidins on the rate and extent of tau aggregation.
An alternative method is to incubate tau in the absence of thioflavin under conditions that cause aggregation in the absence and presence of cinnamon proanthocyanidin. At different times aliquots are removed to measure the aggregation by examining the fluorescence of thioflavin T added to these aliquots. As thioflavin can affect aggregation itself and could compete partly with binding of proanthocyanidin this modified assay could maximize the effect of proanthocyanidin. Because it would necessitate removing aliquots from the reaction at different times and mixing in new reagents, it is less convenient and prone to additional errors.
This conclusion was reached by measuring changes in fluorescence of thioflavin T under conditions well documented to cause formation of tau aggregates.

[3] = test system: tau-dependent MT assembly; assay: Tau-dependent microtubule assembly, turbidity OD350; conditions: tubulin 5 uM, tau187, turbidity OD350
Description: FIG. 9. […] Tubulin (5 uM) was incubated (a) alone, or with (b) CE, (c) tau or (d) both. MT assembly was monitored by turbidity at OD350 in a continuous spectrophotometric assay.
The normal function of tau in neurons is to regulate MT assembly and dynamics. Thus it is desirable for a potential AD therapeutic to inhibit tau aggregation but not impede normal tau function. To test this, purified tubulin was incubated with either CE, tau187 or both, and MT assembly was monitored by solution turbidity. […] The reason for this is unclear, but since tau is normally an unstructured molecule, it is possible that CE promotes a conformer in tau that favors MT binding. Thus CE and proanthocyanidins appear to act as specific inhibitors of tau aggregation that are free of side effects on normal neuron function.

[4] = test system: tau; assay: Tau aggregation / AD fiber formation in vitro (method not specified)
Chain of tau (P10636 572-758 limits assumed): as above
Description: In a first illustrative embodiment of an extraction procedure of the invention, an extract is obtained by using nanopure water equal to 10 times the weight of cinnamon. The mixture is heated for 10 minutes at 95° C., cooled, and centrifuged at 14,000 rpm. The nearly clear supernatant is centrifuged again and then the clear supernatant is filtered through 0.4 and 0.2 micron filters and lyophilized. A fluffy pale tan colored powder can be obtained.

[5] = target: T3, FL-tau (Homo sapiens, UniProt P10636); assay: Turbidity assay of heparin-induced aggregation, FL-tau; conditions: FL-tau 50 uM, heparin 0.1 mg/ml, pH 7.0; trimer 200 uM (FIG. 3a)
T3 construct: full-length tau and an engineered truncation fragment of tau (tau187) were generated by over-expression of the recombinant human protein in bacteria; made in house; host or cells: bacteria
T3 sequence (P10636 1-441 isoform P10636-8): as the sequence (P10636 1-441 isoform P10636-8) above
Description: as §1, §2

- Tau in pellet vs supernatant after ultracentrifugation [1]: remain in the soluble fraction
- Inhibition of tau 187 aggregation by thioflavin T fluorescence [2]: reduces aggregation of tau
- Inhibition of FL-tau aggregation (turbidity) [5]: dramatically inhibited
Substance: A-linked proanthocyanidin trimer [A-type trimer]
- Effect on tau-dependent MT assembly [3]: does not inhibit
- Concentration that completely inhibits tau aggregation in vitro ([4]; complete inhibition of tau aggregation/AD fiber formation): 0.17 mg/ml PA trimer
- Effectiveness of purified PA trimer relative to CE ([4]; same amount of PA trimer, fraction of CE effect): ½
